These results are taken from patent US5179109A (priority 1988, dated 1993).

One data set relates to Swiss mice. Nature of the data set: Simple rotary bar test (dose at which 50% of the animals drop). The data set is classed as in vivo. Particulars: Mus musculus, sc; Swiss mice, subcutaneous, dose at which 50% of the animals drop; read-out: ED50. The protocol:
In this example, the properties of compounds 1 to 5 and 8 to 11 are tested on Swiss mice.
Different doses of the compounds to be tested are administered subcutaneously to the mice and the latter are then placed in batches of 10 on a rotary bar, being separated from one another by separating disks. This bar is made from scraped wood, has a diameter of 3 cm and is moved horizontally with a uniform circular movement about its axis at a speed of 10 rpm.
Determination takes place of the ED50, which is the dose at which 50% of the animals drop, the dose being expressed in mg/kg.

The target of data set [1] is cerebral cholinergic muscarinic receptor. The data set is classed as binding, rat. The note with it: for IC50: rat brain homogenate, read-out: ^3 HQNB IC50; for ^3 HQNB/^3 HTCP: ratio of IC50.
The next data set relates to Purkinje cells. The data set is described as follows: Cerebral aging in mice, histology of the cerebellum. The data set is classed as in vivo. The protocol: (§1) This example illustrates the effect of arylcyclohexylamines on cerebral aging. No matter what the cause of the cerebral aging (vascular or degenerative), it leads to a neuronal loss at the cerebral cortex, the hippocampas and to a lesser extent the cerebellum. This cellular loss can be quantified by simple histological methods and evaluated on a larger scale by means of semi-automatic image analysis methods.
(§2) In this example 6 mice aged 23 months by intraperitonealy injecting 3 of them with 5 mg/kg of TCP in the physiological solute at the 23rd, 24th and 25th months and 3 other mice were intraperitonealy injected with the physiological solute only. At the 26th month, all the mice were sacrificed by intracardial perfusion of a 5% glutaraldehyde solution, the brains were cut up with the vibratone and the sections dyed by the NISSL method.
(§3) The results obtained are given in FIGS. 2 to 5, which are sections of the brain and the cerebellum of the treated mice and the untreated control mice.

The next data set has as its target T1, receptor of the opiates (Rattus norvegicus, UniProt P33535).
T1 construct: variable concentrations of the tested compound and a rat brain homogenate; from tissue; host or cells: rat brain homogenate
The data set is described as follows: Competition test with ^3 H-DHM for the receptor of the opiates. The data set is classed as binding. The note with it: for IC50: rat brain homogenate, read-out: ^3 HDHM IC50. The protocol: In this test, a fixed concentration of ^3 H-DHM labelled morphine was incubated in the presence of variable concentrations of the tested compound and a rat brain homogenate. The concentration of the compound preventing the fixing of 50% of ^3 H-DHM (IC50) is a measure of the affinity of the compound for the receptor of the opiates. The latter also gives the results obtained with PCP and TCP, as well as the ratios H^3 DA/^3 H-TCP, ^3 HQNB/^3 H-TCP and ^3 HDHM/^3 HTCP obtained with the different tested compounds.

The subject of data set [2] is cortical and hippocampal neurons. Nature of the data set: In vitro neuron culture survival after 2 months, count of neurons (Example 23). The data set is classed as cell-based, rat. Particulars: for number of neurons which survived after 2 months culturing: single dose at start of third week, TCP 2.5 and 20, compound 9 and MK801 2.5 and 5 μmole/l, control 50 neurons/mm^2. The protocol: This example also illustrates the effect of the arylcyclohexylamines according to the invention on the in vitro neuron culture survival. As in example 21, cortical and hippocampal neuron cultures are prepared. At the start of the third culturing week, the cells are treated with a single dose of the compound to be tested and culturing is continued for two months. At the end of this period, the cells which were fixed and dyed to reveal the specific enolase of the neurons are subject to counts in order to determine the quantity of cells per surface unit.
The results obtained are given in FIG. 1, which is a histogram indicating the number of cells/mm^2 which survived after 2 months culturing.
The results are given for the control, i.e. for untreated cultures, cultures treated with 2.5 and 20 μmole/l of TCP, cultures treated by compound no. 9 at concentrations of 2.5 and 5 μmole/l and cultures treated by compound MK801 at concentrations of 2.5 and 5 μmole/l. Compound MK801, which is known to have a neuroprotection activity, is (+)-methyl-5-dihydro-10,11(5H)dibenzo(A,D) cyclohepteneimine-5,10 of formula: [drawing 38] From FIG. 1 it can be seen that the control cultures, after surviving for 2 months, on average contain 50 neurons/mm^2. The treated cultures, no matter what the compound and dose used, contain more than 500 neurons/mm^2.

Data set [3] concerns synaptosomal striatal (^3 H)DA capture. The data set is described as follows: Inhibition test of the synaptosomal striatal sample (capture) of (^3 H)DA. The data set is classed as biochemical, Wistar rats. Particulars: for IC50: rat striatal synaptosomes, 5 nM (^3 H)DA, 5 min at 30° C., pH 7.4, read-out: ^3 HDA IC50; for ^3 HDA/^3 H-TCP: ratio of IC50. The protocol:
This test is carried out according to the method used by Vignon and Lazdunski operating in the following way. Wistar rats weighing 200 to 250 g are killed by cervical dislocation. Their brains are rapidly removed and the striae dissected on ice. The striae are then homogenized with a Teflon glass Potter homogenizer in 50 volumes of tris HCl 10 mM buffer containing 0.32M of sucrose at pH 7.4 and they are centrifuged at 1000 g for 10 min. The supernatants are further centrifuged at 10000 g for 20 min. The resulting deposits P2 containing the crude synaptosomes are used without supplementary purification.
The synaptosomes are balanced with the compound to be tested for 30 min at 30° C. in the Ringer medium (mM: 140 NaCl, 5 KCl, 2.6 CaCl2, 1.3 MgSO4, 10 tris-HCl, pH=7.4)+200 μM of pargyline. This is followed by the addition of (^3 H)DA labelled dopamine at a final concentration of 5 nM for 5 min at 30° C. and sampling is interrupted by filtration of the incubate (150 μl) on GF/B filters. The non-specific sample is measured at 4° C. in parallel incubations and is deducted from the total sample at 30° C. The IC50 is the compound concentration preventing 50% of the specific capture compared with the control in the absence of an inhibitor.

The test system of a further data set is site of PCP. The data set is described as follows: Affinity for the PCP site, competition with (^3 H)PCP on rat brain homogenates. Particulars: rat brain homogenate, pH 7.7, 25° C., 1 nmole tritiated ligand. In kind it is binding.
Another data set concerns site of TCP. Nature of the data set: Affinity for the TCP site, competition with (^3 H)TCP on rat brain homogenates. The data set is classed as binding. Particulars: rat brain homogenate, pH 7.7, 25° C., 1 nmole tritiated ligand; read-out: ^3 HTCP IC50.
Data set [4] has as its system pyramidal cells Ca3 of Ammon's horn. The data set is described as follows: Cerebral aging in mice, histology of the hippocampus. Particulars: 5 mg/kg intraperitoneal at 23rd, 24th and 25th months; 26th month. In kind it is in vivo. The protocol:
as §1, §2, §3

Data set [5] is described as follows: Subcutaneous LD50 in the rat. Particulars: in vivo, sc.

Entries after “also recorded” stand apart in the source; their conditions may differ. Bounds are passed on as bounds.

T1 sequence (P33535 whole entry): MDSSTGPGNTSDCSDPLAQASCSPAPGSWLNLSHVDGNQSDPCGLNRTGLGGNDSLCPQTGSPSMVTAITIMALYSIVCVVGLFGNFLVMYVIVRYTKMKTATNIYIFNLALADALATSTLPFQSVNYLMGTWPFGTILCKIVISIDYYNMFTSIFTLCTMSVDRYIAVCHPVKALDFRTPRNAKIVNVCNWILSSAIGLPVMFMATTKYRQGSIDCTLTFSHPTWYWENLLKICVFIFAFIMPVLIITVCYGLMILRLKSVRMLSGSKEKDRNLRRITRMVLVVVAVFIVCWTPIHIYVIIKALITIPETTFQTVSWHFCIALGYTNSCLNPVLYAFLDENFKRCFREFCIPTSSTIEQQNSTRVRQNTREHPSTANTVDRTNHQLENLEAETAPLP

On to `C[C@@H]1CCCC[C@]1(c1cccs1)N1CCCCC1` (relative stereo) [compound 9, c-methyl-2-r-(piperidino-1)-1 (thienyl-2)-1 cyclohexane], for which the ED50 with Swiss mice came to 3.5 mg/kg. Besides, the IC50 in data set [1] stood at 12 µM; on receptor of the opiates, 5 µM; in [3], 7.9 µM. In the data set on Purkinje cells (cerebellum and hippocampus, compared with TCP), the “cerebral aging experiment repeated in place of TCP” value is reported as “equivalent results were obtained”. Moreover, the “neuron survival, comparison in words” value in data set [2] (compound 9 at 5 μmole/liter, 2 months culturing) is “comparable result to that of TCP at 20 μmole/l and that of MK801 at 5 μmole/l; also recorded: effectiveness equal to that of the reference compound MK801”. In [2], the “number of neurons which survived after 2 months culturing” value was “more than 500 neurons/mm^2”. In addition, the “^3 HDA/^3 H-TCP” value in data set [3] amounted to 415.

`c1csc(C2(N3CCCCC3)CCCCC2)c1` [TCP, ((2-thienyl)-1 cyclohexyl)-N-piperidine, reference compound]: the ED50 with Swiss mice is 2.3 mg/kg. Also, the IC50 was 21 µM in [1]; 0.026 µM in the data set on site of PCP; 11 µM on receptor of the opiates; 0.063 µM with site of TCP; 1.6 µM in [3]. Also, in data set [1], the “^3 HQNB/^3 HTCP” value is listed as 333. Further, the “rarefication of the Purkinje cells at the cerebellum versus untreated” value with Purkinje cells (5 mg/kg intraperitoneal at 23rd, 24th and 25th months, 26th month) was “much less significant”. Further, the “^3 HDHM/^3 HTCP” value on receptor of the opiates (ratio of IC50) was determined as 74.6. Further, the “number of neurons which survived after 2 months culturing” value in data set [2] was “more than 500 neurons/mm^2”. In addition, the “^3 HDA/^3 H-TCP” value in [3] is given as 25.39. The “rarefaction of the pyramidal cells Ca3 of Ammon's horn versus untreated” value in [4] is given as “much less marked”.

Turning to `OCC1CCCN(C2(c3cccs3)CCCCC2)C1` (stereo not drawn) [compound 3, [(hydroxymethyl-3piperidino)-1]-1 (thienyl-2)-1 cyclohexane], in the data set on Swiss mice, the ED50 is 0.68 mg/kg. The 50% inhibitory concentration (IC50) in data set [1] was 90 µM; in the data set on site of PCP it was 0.7 µM. Besides, the “^3 HQNB/^3 HTCP” value in [1] is recorded as 128. In addition, the LD50 in data set [5] is over 60 mg/kg.

Take `OCC1CCCN(C2(c3ccccc3)CCCCC2)C1` (stereo not drawn) [compound 4, [(hydroxymethyl-3piperidino)-1]-1phenyl-1 cyclohexane]: the ED50 with Swiss mice amounted to 1.8 mg/kg. For the same compound, the results for the IC50 (in data set [1]; in the data set on site of PCP) were 100 µM and 1 µM, respectively. The “^3 HQNB/^3 HTCP” value in data set [1] was 100. The LD50 in data set [5] was over 60 mg/kg.

Usually ED50 stands for the dose at which the effect has come halfway, by size or by number of responders. One may read the IC50 as the concentration at which inhibition is half-maximal. Broadly, the LD50 is the dose at which mortality reaches 50%.
